In patent US10174013B2, “Benzimidazole derivatives as kinase inhibitors” (SELVITA S.A., priority 2012, dated 2019):
Like-named read-outs stand apart in the source and are kept apart here. Values belong to the compound of their own block, whether it stands above or below them.

Legend:
Pim-1 = Pim-1 (Homo sapiens (Human), UniProt P11309); assay: ADP-Glo Kinase Assay, Pim-1; format: biochemical; settings: 1 μM compound; for inhibition at 1 µM: read-out: Pim-1 % INH (1 μM)
Method in brief: (§1)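 Compounds were diluted in assay buffer to 1000 nM and incubated with kinase, substrate and ATP at apparent Km. Remaining ATP was depleted, ADP converted to ATP and detected by luciferase; percent inhibition came from normalized luminescence.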

Pim-2 = Pim-2 (Homo sapiens (Human), UniProt Q9P1W9); assay: ADP-Glo Kinase Assay, Pim-2; format: biochemical; settings: 1 μM compound; for inhibition at 1 µM: read-out: Pim-2 % INH (1 μM)
Pim-2, sequence (Q9P1W9 whole entry): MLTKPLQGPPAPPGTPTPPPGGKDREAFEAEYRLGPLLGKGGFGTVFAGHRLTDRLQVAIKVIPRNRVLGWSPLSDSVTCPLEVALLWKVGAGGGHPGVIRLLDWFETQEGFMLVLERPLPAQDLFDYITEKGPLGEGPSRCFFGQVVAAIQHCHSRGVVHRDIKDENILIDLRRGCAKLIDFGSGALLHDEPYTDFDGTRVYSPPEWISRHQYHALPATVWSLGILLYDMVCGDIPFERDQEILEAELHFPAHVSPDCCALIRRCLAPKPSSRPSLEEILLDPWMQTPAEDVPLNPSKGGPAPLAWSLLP
Method in brief: as §1

Pim-3 = Pim-3 (Homo sapiens (Human), UniProt Q86V86); assay: ADP-Glo Kinase Assay, Pim-3; format: biochemical; settings: 1 μM compound; for inhibition at 1 µM: read-out: Pim-3 % INH (1 μM)
Method in brief: as §1

FLT3wt = FLT3wt (Homo sapiens (Human), UniProt P36888); assay: ADP-Glo Kinase Assay, Flt3 wt; format: biochemical; settings: 1 μM compound; for inhibition at 1 µM: read-out: Flt3wt % INH (1 μM)
FLT3wt, sequence (P36888 27-993): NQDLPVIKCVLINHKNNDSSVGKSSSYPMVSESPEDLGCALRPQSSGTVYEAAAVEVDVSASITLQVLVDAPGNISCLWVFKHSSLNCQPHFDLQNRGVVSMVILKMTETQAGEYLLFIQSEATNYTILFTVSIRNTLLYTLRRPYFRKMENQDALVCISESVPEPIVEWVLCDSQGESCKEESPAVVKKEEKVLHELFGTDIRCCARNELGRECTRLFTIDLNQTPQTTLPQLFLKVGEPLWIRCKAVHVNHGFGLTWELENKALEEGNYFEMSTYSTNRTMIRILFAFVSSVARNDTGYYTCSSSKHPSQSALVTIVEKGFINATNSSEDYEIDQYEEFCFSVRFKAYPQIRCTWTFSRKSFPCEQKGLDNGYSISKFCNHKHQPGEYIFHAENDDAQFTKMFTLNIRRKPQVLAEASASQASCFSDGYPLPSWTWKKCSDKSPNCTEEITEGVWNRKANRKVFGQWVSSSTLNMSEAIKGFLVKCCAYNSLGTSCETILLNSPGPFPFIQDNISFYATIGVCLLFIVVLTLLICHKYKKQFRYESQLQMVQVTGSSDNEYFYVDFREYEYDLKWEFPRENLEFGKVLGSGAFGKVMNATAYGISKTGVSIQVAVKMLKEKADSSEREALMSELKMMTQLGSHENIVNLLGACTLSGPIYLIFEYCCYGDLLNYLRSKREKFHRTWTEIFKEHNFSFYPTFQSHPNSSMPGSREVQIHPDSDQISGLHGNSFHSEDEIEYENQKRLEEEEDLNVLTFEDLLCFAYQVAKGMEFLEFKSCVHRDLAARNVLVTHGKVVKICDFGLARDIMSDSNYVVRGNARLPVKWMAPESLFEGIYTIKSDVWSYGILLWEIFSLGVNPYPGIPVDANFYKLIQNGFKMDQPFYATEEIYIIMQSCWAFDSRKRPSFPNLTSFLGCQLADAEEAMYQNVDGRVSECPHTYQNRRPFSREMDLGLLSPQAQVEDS
Method in brief: as §1

FLT3-ITD = assay: ADP-Glo Kinase Assay, Flt3 ITD; format: biochemical, Human; settings: 1 μM compound
Protocol: Compounds of the present invention were tested for their inhibitory activity against Pim-1, Pim-2, Pim-3, Flt3 wt, Flt3 ITD, CDK2/E and DYRK1. The testing of the compounds was carried out using the ADP-Glo™ Kinase Assay from Promega Corporation (Madison, Wis., USA).
The ADP-Glo™ Kinase Assay is a luminescent ADP detection assay to measure kinase activity by quantifying the amount of ADP produced during a kinase reaction. The kinase assay is performed in kinase assay buffer (5 mM MOPS, pH 7.5, 5 mM MgCl2, 0.4 mM EDTA, 1.5 mM DTT). Test samples initially dissolved in DMSO at 10 mM were diluted with the assay buffer to 1000 nM. A 30 μL volume/well of a mixture of substrates containing ATP (final ATP concentration in each kinase assay was equal to its apparent ATP Km).
The assay was performed in two steps: first, after the kinase reaction, an equal volume of ADP-Glo™ Reagent was added to terminate the kinase reaction and deplete the remaining ATP. Second, the Kinase Detection Reagent was added to simultaneously convert ADP to ATP and allowed the newly synthesized ATP to be measured using a luciferase/luciferin reaction. The luminescent signal generated was proportional to the ADP concentration produced and was correlated with kinase activity. A microplate spectrophotometer (Synergy 2 multi-mode microplate reader [BioTek]) was used for detecting the luminescence. The data was normalized and the percent of inhibition was obtained according to the following equation: […]

CDK2/E = CDK2/E (Homo sapiens (Human), UniProt P24941); assay: ADP-Glo Kinase Assay, CDK2/E; format: biochemical; settings: 1 μM compound; for inhibition at 1 µM: read-out: CDK2/E % INH (1 μM)
Method in brief: as §1

DYRK1 = DYRK1 (Homo sapiens (Human), UniProt Q13627); assay: ADP-Glo Kinase Assay, DYRK1; format: biochemical; settings: 1 μM compound; for inhibition at 1 µM: read-out: DYRK1A % INH (1 μM)
Method in brief: as §1

MV4-11 cells = assay: Growth inhibition, MTS assay, MV4-11; format: cell-based, Human; settings: MTS cell viability, read-out: MV4-11 ED50
HepG2 cells = assay: Growth inhibition, MTS assay, HepG2; format: cell-based, Human; settings: MTS cell viability, read-out: HepG2 ED50
hERG potassium channel = hERG potassium channel (Homo sapiens (Human), UniProt Q12809); assay: hERG automated patch clamp assay (QPatch HT)
hERG potassium channel, sequence (Q12809 whole entry): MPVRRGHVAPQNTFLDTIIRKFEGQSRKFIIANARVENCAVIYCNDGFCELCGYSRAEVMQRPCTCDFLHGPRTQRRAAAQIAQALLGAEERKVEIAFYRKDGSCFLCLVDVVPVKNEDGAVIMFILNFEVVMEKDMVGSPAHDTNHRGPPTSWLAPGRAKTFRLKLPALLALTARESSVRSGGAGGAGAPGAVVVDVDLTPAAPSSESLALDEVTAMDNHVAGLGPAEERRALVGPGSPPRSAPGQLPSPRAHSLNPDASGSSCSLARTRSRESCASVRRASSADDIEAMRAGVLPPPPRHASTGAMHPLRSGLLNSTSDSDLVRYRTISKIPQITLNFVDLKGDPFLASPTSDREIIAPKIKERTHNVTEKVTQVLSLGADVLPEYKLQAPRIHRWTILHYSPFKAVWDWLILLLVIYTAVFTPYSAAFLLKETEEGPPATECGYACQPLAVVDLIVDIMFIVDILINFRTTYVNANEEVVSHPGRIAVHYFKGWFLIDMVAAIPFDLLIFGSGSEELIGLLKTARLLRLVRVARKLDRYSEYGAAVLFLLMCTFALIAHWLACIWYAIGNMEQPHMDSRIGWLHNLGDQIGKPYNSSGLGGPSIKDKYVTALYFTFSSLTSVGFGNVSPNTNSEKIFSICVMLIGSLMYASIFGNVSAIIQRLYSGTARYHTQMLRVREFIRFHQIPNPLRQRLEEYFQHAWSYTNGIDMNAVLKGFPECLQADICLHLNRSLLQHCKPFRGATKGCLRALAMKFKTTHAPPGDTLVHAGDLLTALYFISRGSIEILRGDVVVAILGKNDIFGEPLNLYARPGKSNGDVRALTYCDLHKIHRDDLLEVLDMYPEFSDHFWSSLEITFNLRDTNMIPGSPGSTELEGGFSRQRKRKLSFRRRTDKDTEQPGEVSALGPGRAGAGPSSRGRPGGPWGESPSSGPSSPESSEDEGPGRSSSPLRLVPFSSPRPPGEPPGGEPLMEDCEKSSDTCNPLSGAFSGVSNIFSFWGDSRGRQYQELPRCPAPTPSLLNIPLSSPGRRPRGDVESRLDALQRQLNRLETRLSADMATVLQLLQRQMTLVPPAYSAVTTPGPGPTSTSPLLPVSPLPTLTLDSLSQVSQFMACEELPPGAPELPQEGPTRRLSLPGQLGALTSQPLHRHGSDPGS
Method in brief: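 Automated whole-cell patch clamp of hERG current in mammalian cells at room temperature. Compounds applied at 0.1, 1, 3, 10 and 30 μM, 3 min per concentration, n≥2 cells each.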

CYP3A4 = CYP3A4 (Homo sapiens (Human), UniProt P08684); assay: Cytochrome P450 inhibition, fluorescence, CYP3A4; format: in vitro ADME; settings: recombinant CYP3A4, fluorescence detection; read-out: CYP inhibition (CYP 3A4 screening, IC50 class)
CYP3A4, sequence (P08684 whole entry, canonical isoform): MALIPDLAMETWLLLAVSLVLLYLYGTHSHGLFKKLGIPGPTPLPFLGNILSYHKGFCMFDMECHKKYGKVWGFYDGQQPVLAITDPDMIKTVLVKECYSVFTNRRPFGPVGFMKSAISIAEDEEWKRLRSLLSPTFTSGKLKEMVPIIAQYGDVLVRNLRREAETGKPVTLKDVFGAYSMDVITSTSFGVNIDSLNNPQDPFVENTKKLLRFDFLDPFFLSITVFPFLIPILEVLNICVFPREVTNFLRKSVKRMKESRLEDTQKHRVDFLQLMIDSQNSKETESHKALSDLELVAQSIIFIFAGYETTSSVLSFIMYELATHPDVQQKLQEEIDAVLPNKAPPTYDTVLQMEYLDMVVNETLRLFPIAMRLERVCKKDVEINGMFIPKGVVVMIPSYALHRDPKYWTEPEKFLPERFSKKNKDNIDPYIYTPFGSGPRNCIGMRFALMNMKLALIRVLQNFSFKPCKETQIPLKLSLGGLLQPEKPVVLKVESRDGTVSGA
Protocol: The assays for cytochrome P450 inhibition facilitate the identification of drug candidates with lower potential for drug-drug interactions (weak enzymes inhibitors). In vitro experiments were conducted to determine whether a drug inhibits a specific CYP enzyme. The experiments comprised the incubation of the drug with probe substrates for the CYP enzymes, wherein the following recombinant cytochrome P450 isoforms were employed: CYP1A2, CYP2C8, CYP2C9, CYP2C19, CYP2D6 and CYP3A4, together with various probe substrates enabling fluorescence detection. The protocol uses a single substrate concentration near the apparent Km and multiple compound concentrations.
The assay was performed in 96-well microtiter plates. The row designations were A through H and the column designations were 1 through 12. […] Each compound (see Table 6 for tested compounds) was added to the wells in column 1 and serially diluted to the wells in column 8. Wells 9 and 10 were control wells which contained no test compound (therefore no inhibition-full signal is detected.) The wells in columns 11 and 12 were blanks, where STOP solution was added prior to the addition of the enzyme/substrate mix to the NADPH regenerating system (the only signal present in these wells is background noise.) The assay was conducted in a final volume of 0.2 ml per well.
The stock solutions of the tested compounds were prepared in DMSO at 10 mM concentration. […] After mixing the compounds with solution containing NADPH-cofactors, the mixed plate was preincubated in a 37° C. incubator for at least 10 minutes; next, the fluorescence of compounds using recommended excitation/emission filters was measured in order to eliminate false results originating from autofluorescence of the compounds. In the following step, the enzyme/substrate mix was added to columns 1 through 10 and the plates were incubated at 37° C. for specific times depending on the CYP tested (incubation times ranged from 30 to 45 minutes). After adding STOP SOLUTION to all wells and respective enzyme/substrate mix to the wells in columns 11 and 12, the plate was scanned with a fluorescent plate scanner. The excitation/emission filters used for the specific assays are described in the GenTest Screening Kit instruction manual.

HEL92 cells = assay: Growth inhibition, MTS assay, HEL92; format: cell-based, Human; settings: MTS cell viability, read-out: HEL92 ED50
Jeko-1 cells = assay: Growth inhibition, MTS assay, Jeko-1; format: cell-based, Human; settings: 72 hours, MTS cell viability, read-out: Jeko-1 ED50
MOLM16 cells = assay: Growth inhibition, MTS assay, MOLM16; format: cell-based, Human; settings: MTS cell viability, read-out: MOLM 16 ED50
MOLM13 cells = assay: Growth inhibition, MTS assay, MOLM13; format: cell-based, Human; settings: 72 hours, MTS cell viability, read-out: MOLM 13 ED50
Description: (§2) The following cell lines, were obtained and used in tests as outlined below: • Human myelomonocytic, biphenotypic leukemia MV4-11 cells (harboring a Flt3-ITD mutation); • Human Acute Myeloid Leukemia MOLM16 cells; • Human Acute Myeloid Leukemia MOLM13 cells (harboring a Flt3-ITD mutation); • Human Myeloid Leukemia KG-1 cells; • Human erythroleukemia HEL92 cells; • Human mantle cell lymphoma Jeko-1 cells; • Human hepatocellular carcinoma HepG2 cells; and • Human colon adenocarcinoma SW-480 cells.
(§3) The assays were carried out according to the following protocol, which is described as an example for the MV4-11 cells:
(§4) Ten thousand MV4-11 cells were inoculated into each well of a 96-well microplate (manufactured by Corning Corp.) using Iscove's MDM medium (culture medium) containing 10% fetal calf serum (FCS). The same day, a dimethyl sulfoxide (DMSO) solution of each test compound prepared in a concentration of 10 mmol/L was further diluted with DMSO to the desired concentrations (0.1, 0.5, 1, 2.5, 5 and 10 micromol/L), and the diluted solution was added to each well. The individual wells were further cultured in 5% carbon dioxide at 37° C. for 72 hours. […] Briefly, 10 μl MTS (3-(4,5-Dimethyl-2-thiazolyl)-5-(carboxymethoxyphenyl)-2-(4-sulfophenyl)-2H-tetrazolium was added to each well, and culturing was performed in 5% carbon dioxide at 37° C. for 2 hours. After this incubation and using a microplate spectrophotometer (Synergy 2 multi-mode microplate reader (BioTek)), the absorbance of each well was measured at 490 nm. The value for cells not incubated with a test compound was designated as 100%. By comparing these values with the absorbance difference obtained at the well in which each test compound was added, the cell viability (% viability) after treatment with the test compound was calculated.

KG-1 cells = assay: Growth inhibition, MTS assay, KG-1; format: cell-based, Human; settings: 72 hours, MTS cell viability
Description: as §2, §3, §4

SW-480 cells = assay: Growth inhibition, MTS assay, SW-480; format: cell-based, Human; settings: 72 hours, MTS cell viability; read-out: SW-480 ED50
MV4-11 xenograft = MV4-11 xenograft in immunocompromised mice; format: in vivo; settings: MV4-11 xenograft, oral
Method in brief: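 MV4-11 leukemic cells engrafted in NOD/scid or SCID/beige mice; oral dosing started at tumor volume approx. 50-200 mm^3, daily QD or BID for 2-3 weeks. Efficacy read as tumor growth inhibition (TGI), tolerability as body weight change (ΔBW).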

Pim-1, sequence (P11309 whole entry): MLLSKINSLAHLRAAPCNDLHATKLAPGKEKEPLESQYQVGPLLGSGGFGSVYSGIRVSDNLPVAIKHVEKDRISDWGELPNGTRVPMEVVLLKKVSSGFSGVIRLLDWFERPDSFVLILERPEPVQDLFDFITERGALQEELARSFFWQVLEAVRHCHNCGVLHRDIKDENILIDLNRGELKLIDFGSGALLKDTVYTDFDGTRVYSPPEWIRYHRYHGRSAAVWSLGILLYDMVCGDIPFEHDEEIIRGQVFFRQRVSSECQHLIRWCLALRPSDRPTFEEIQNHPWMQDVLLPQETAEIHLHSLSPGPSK

- inhibition at 1 µM (Pim-1): > 95%
- inhibition at 1 µM (Pim-2): 31%
- inhibition at 1 µM (Pim-3): 79%
- inhibition at 1 µM (FLT3wt): < 5%
- Flt3ITD % INH (1 μM) (FLT3-ITD): 5%
- inhibition at 1 µM (CDK2/E): < 5%
- inhibition at 1 µM (DYRK1): 16%
- IC50 (MV4-11 cells; Homo sapiens, MV4-11, 72 h): 2800 nM
- IC50 (HepG2 cells; Homo sapiens, HepG2, 72 h): 4700 nM
- IC50 (CYP3A4): 3300 to 10000 nM
SMILES: CC(C)n1c(NCCOCCN)nc2c([N+](=O)[O-])c(Br)c(Br)cc21 [Example 22J, N-[2-(2-aminoethoxy)ethyl]-5,6-dibromo-4-nitro-1-(propan-2-yl)-1H-1,3-benzodiazol-2-amine]
- IC50 (hERG potassium channel): 11900 nM

- inhibition at 1 µM (Pim-1): > 95%
- inhibition at 1 µM (Pim-2): 59%
- inhibition at 1 µM (Pim-3): 91%
- inhibition at 1 µM (FLT3wt): 18%
- Flt3ITD % INH (1 μM) (FLT3-ITD): 50%
- inhibition at 1 µM (CDK2/E): 28%
- inhibition at 1 µM (DYRK1): 65%
- IC50 (MV4-11 cells; Homo sapiens, MV4-11, 72 h): 1000 nM
- IC50 (HepG2 cells; Homo sapiens, HepG2, 72 h): 1200 nM
- IC50 (MOLM16 cells; Homo sapiens, MOLM16, 72 h): 100 nM
- IC50 (MOLM13 cells; Homo sapiens, MOLM-13): 3900 nM
SMILES: CCn1c(N2CC[C@H](N)C2)nc2c(C#N)c(Br)c(Br)cc21 [Example 1DR]
- IC50 (HEL92 cells; Homo sapiens, 72 h): 6200 nM
- IC50 (Jeko-1 cells; Homo sapiens, JeKo-1): 1300 nM
- KG-1 ED50 (KG-1 cells): 140 nM

- Pim-1 % INH (1 μM) (Pim-1): >95%
- Pim-2 % INH (1 μM) (Pim-2): 55%
- Pim-3 % INH (1 μM) (Pim-3): >95%
- Flt3wt % INH (1 μM) (FLT3wt): 9%
- Flt3ITD % INH (1 μM) (FLT3-ITD): 29%
- CDK2/E % INH (1 μM) (CDK2/E): 6%
- DYRK1A % INH (1 μM) (DYRK1): 39%
- IC50 (MV4-11 cells; 72 hours): 600 nM
- IC50 (HepG2 cells; 72 hours): 2200 nM
- IC50 (SW-480 cells): 7000 nM
- IC50 (MOLM16 cells; 72 hours): 200 nM
- IC50 (MOLM13 cells): 1800 nM
SMILES: CCn1c(N2CCC[C@H](N)C2)nc2c([N+](=O)[O-])c(Br)c(Br)cc21 [Example 1AH]
- IC50 (HEL92 cells; 72 hours): 6000 nM
- IC50 (Jeko-1 cells): 1900 nM
- KG-1 ED50 (KG-1 cells): 650 nM
- TGI (tumor growth inhibition) (MV4-11 xenograft; 150 mg/Kg QD): 74%
- ΔBW (body weight change) (MV4-11 xenograft; 150 mg/Kg QD): 0.6%
- TGI (tumor growth inhibition) (MV4-11 xenograft; doses as in Table 3): more than 70%
